Results as given in ChEMBL document CHEMBL5365474, “Discovery of a First-in-Class CD38 Inhibitor for the Treatment of Mitochondrial Myopathy” (J Med Chem, 2023).
Values after ≈ are worked out from the molar mass of the structure shown.

Experiment: physchem
Settings: PBS, pH 7.4

O=C(Nc1cccnc1)c1cc(C(F)(F)F)nc(-n2ccnc2)n1
solubility at 2 h: 48 µM (≈ 16 µg/mL)
